Assay results published in ChEMBL document CHEMBL4312022, “Design, synthesis, and biological evaluation of ligustrazine - betulin amino-acid/dipeptide derivatives as anti-tumor agents” (Eur J Med Chem, 2020).

Columns and labels:
HepG2 = assay: Antiproliferative activity against human HepG2 cells assessed as reduction in cell viability after 72 hrs by MTT assay; type: functional, cell-based; conditions: HepG2, 72 h
MDCK = assay: Cytotoxicity against MDCK cells assessed as reduction in cell viability after 72 hrs by MTT assay; type: cell-based; conditions: Canis lupus familiaris
HT-29 = assay: Antiproliferative activity against human HT-29 cells assessed as reduction in cell viability after 72 hrs by MTT assay; type: functional, cell-based; conditions: HT-29, 72 h
BGC-823 = assay: Antiproliferative activity against human BGC823 cells assessed as reduction in cell viability after 72 hrs by MTT assay; type: functional, cell-based; conditions: BGC-823, 72 h
HeLa = assay: Antiproliferative activity against human HeLa cells assessed as reduction in cell viability after 72 hrs by MTT assay; type: functional, cell-based

In the case of `C=C(C)[C@@H]1CC[C@]2(COC(=O)c3nc(C)c(C)nc3C)CC[C@]3(C)[C@H](CC[C@@H]4[C@@]5(C)CC[C@H](OC(=O)CNC(=O)[C@@H]6CCCN6C(C)=O)C(C)(C)[C@@H]5CC[C@]43C)[C@@H]12`, the IC50 (HepG2) is reported as > 20 µM, the IC50 (MDCK) is reported as 19.8 µM and the IC50 (HT-29) is reported as 12.3 µM. For the same compound, the IC50 (BGC-823) was 8.15 µM and the IC50 (HeLa) was 10.1 µM.
For `C=C(C)[C@@H]1CC[C@]2(COC(=O)c3nc(C)c(C)nc3C)CC[C@]3(C)[C@H](CC[C@@H]4[C@@]5(C)CC[C@H](OC(=O)CN(C)C(=O)CNC(C)=O)C(C)(C)[C@@H]5CC[C@]43C)[C@@H]12`, the IC50 (HepG2) was > 20 µM, the IC50 (MDCK) was > 20 µM and the IC50 (HT-29) was > 20 µM. For the same compound, the IC50 (BGC-823) was 10.3 µM and the IC50 (HeLa) was 7.96 µM.
With `C=C(C)[C@@H]1CC[C@]2(COC(=O)c3nc(C)c(C)nc3C)CC[C@]3(C)[C@H](CC[C@@H]4[C@@]5(C)CC[C@H](OC(=O)[C@@H]6CCCN6C(=O)[C@@H]6CCCN6C(C)=O)C(C)(C)[C@@H]5CC[C@]43C)[C@@H]12` the IC50 (HepG2) was > 20 µM, the IC50 (MDCK) was > 20 µM and the IC50 (HT-29) was > 20 µM. The IC50 (BGC-823) was > 20 µM and the IC50 (HeLa) was 11.1 µM.
Work on `C=C(C)[C@@H]1CC[C@]2(COC(=O)c3nc(C)c(C)nc3C)CC[C@]3(C)[C@H](CC[C@@H]4[C@@]5(C)CC[C@H](OC(=O)CNC)C(C)(C)[C@@H]5CC[C@]43C)[C@@H]12` yielded an IC50 (HepG2) of 5.93 µM, an IC50 (MDCK) of 14.6 µM and an IC50 (HT-29) of 7.92 µM. It also gave an IC50 (BGC-823) of 8.23 µM and an IC50 (HeLa) of 7.88 µM.
In the case of `C=C(C)[C@@H]1CC[C@]2(COC(=O)c3nc(C)c(C)nc3C)CC[C@]3(C)[C@H](CC[C@@H]4[C@@]5(C)CC[C@H](OC(=O)[C@@H]6CCCN6)C(C)(C)[C@@H]5CC[C@]43C)[C@@H]12`, the IC50 (HepG2) is reported as 19.6 µM, the IC50 (MDCK) is reported as 17.6 µM and the IC50 (HT-29) is reported as 15 µM. The IC50 (BGC-823) was 10.4 µM and the IC50 (HeLa) was 17.2 µM.
For `C=C(C)[C@@H]1CC[C@]2(COC(=O)c3nc(C)c(C)nc3C)CC[C@]3(C)[C@H](CC[C@@H]4[C@@]5(C)CC[C@H](OC(=O)[C@@H](N)[C@@H](C)CC)C(C)(C)[C@@H]5CC[C@]43C)[C@@H]12`, the IC50 (HepG2) was > 20 µM, the IC50 (MDCK) was > 20 µM and the IC50 (HT-29) was 16.6 µM. The IC50 (BGC-823) was > 20 µM and the IC50 (HeLa) was > 20 µM.
In the case of `C=C(C)[C@@H]1CC[C@]2(COC(=O)c3nc(C)c(C)nc3C)CC[C@]3(C)[C@H](CC[C@@H]4[C@@]5(C)CC[C@H](OC(=O)CNC(=O)CCNC(C)=O)C(C)(C)[C@@H]5CC[C@]43C)[C@@H]12`, the IC50 (HepG2) is reported as > 20 µM, the IC50 (MDCK) is reported as 15.8 µM and the IC50 (HT-29) is reported as > 20 µM. It also gave an IC50 (BGC-823) of 7.62 µM and an IC50 (HeLa) of 6.72 µM.
In the case of `C=C(C)[C@@H]1CC[C@]2(COC(=O)c3nc(C)c(C)nc3C)CC[C@]3(C)[C@H](CC[C@@H]4[C@@]5(C)CC[C@H](OC(=O)CNC(=O)CNC(C)=O)C(C)(C)[C@@H]5CC[C@]43C)[C@@H]12`, the IC50 (HepG2) is reported as > 20 µM, the IC50 (MDCK) is reported as 14.5 µM and the IC50 (HT-29) is reported as 11.2 µM. For the same compound, the IC50 (BGC-823) was 7.85 µM and the IC50 (HeLa) was > 20 µM.
In the case of `C=C(C)[C@@H]1CC[C@]2(COC(=O)c3nc(C)c(C)nc3C)CC[C@]3(C)[C@H](CC[C@@H]4[C@@]5(C)CC[C@H](O)C(C)(C)[C@@H]5CC[C@]43C)[C@@H]12`, the IC50 (HepG2) is reported as 13.6 µM, the IC50 (MDCK) is reported as > 20 µM and the IC50 (HT-29) is reported as 16.3 µM. It also gave an IC50 (BGC-823) of 15 µM and an IC50 (HeLa) of 18.5 µM.
`C=C(C)[C@@H]1CC[C@]2(CO)CC[C@]3(C)[C@H](CC[C@@H]4[C@@]5(C)CC[C@H](O)C(C)(C)[C@@H]5CC[C@]43C)[C@@H]12` [BETULIN] was tested, and the IC50 (HepG2) was > 20 µM, the IC50 (MDCK) was > 20 µM and the IC50 (HT-29) was > 20 µM. The IC50 (BGC-823) was > 20 µM and the IC50 (HeLa) was 12.2 µM.
With `C=C(C)[C@@H]1CC[C@]2(COC(=O)c3nc(C)c(C)nc3C)CC[C@]3(C)[C@H](CC[C@@H]4[C@@]5(C)CC[C@H](OC(=O)[C@@H](N)C(C)C)C(C)(C)[C@@H]5CC[C@]43C)[C@@H]12` the IC50 (HepG2) was > 20 µM, the IC50 (MDCK) was > 20 µM and the IC50 (HT-29) was > 20 µM. For the same compound, the IC50 (BGC-823) was > 20 µM and the IC50 (HeLa) was > 20 µM.
Work on `C=C(C)[C@@H]1CC[C@]2(COC(=O)c3nc(C)c(C)nc3C)CC[C@]3(C)[C@H](CC[C@@H]4[C@@]5(C)CC[C@H](OC(=O)[C@H](C)N)C(C)(C)[C@@H]5CC[C@]43C)[C@@H]12` yielded an IC50 (HepG2) of 10.1 µM, an IC50 (MDCK) of 18.5 µM and an IC50 (HT-29) of 9.29 µM. It also gave an IC50 (BGC-823) of 7.83 µM and an IC50 (HeLa) of 9.22 µM.
`C=C(C)[C@@H]1CC[C@]2(COC(=O)c3nc(C)c(C)nc3C)CC[C@]3(C)[C@H](CC[C@@H]4[C@@]5(C)CC[C@H](OC(=O)CN(C)C(=O)[C@@H]6CCCN6C(C)=O)C(C)(C)[C@@H]5CC[C@]43C)[C@@H]12` was tested, and the IC50 (HepG2) was > 20 µM, the IC50 (MDCK) was > 20 µM and the IC50 (HT-29) was 9.71 µM. It also gave an IC50 (BGC-823) of 7.93 µM and an IC50 (HeLa) of 10.5 µM.
`C=C(C)[C@@H]1CC[C@]2(COC(=O)c3nc(C)c(C)nc3C)CC[C@]3(C)[C@H](CC[C@@H]4[C@@]5(C)CC[C@H](OC(=O)CN(C)C(=O)CCNC(C)=O)C(C)(C)[C@@H]5CC[C@]43C)[C@@H]12` was tested, and the IC50 (HepG2) was 11 µM, the IC50 (MDCK) was 18.6 µM and the IC50 (HT-29) was 12.5 µM. For the same compound, the IC50 (BGC-823) was 6.94 µM and the IC50 (HeLa) was 4.13 µM.
For `C=C(C)[C@@H]1CC[C@]2(COC(=O)c3nc(C)c(C)nc3C)CC[C@]3(C)[C@H](CC[C@@H]4[C@@]5(C)CC[C@H](OC(=O)[C@@H]6CCCN6C(=O)CNC(C)=O)C(C)(C)[C@@H]5CC[C@]43C)[C@@H]12`, the IC50 (HepG2) was 18.4 µM, the IC50 (MDCK) was 18.9 µM and the IC50 (HT-29) was 14.7 µM. The IC50 (BGC-823) was 18.9 µM and the IC50 (HeLa) was 17.9 µM.
With `C=C(C)[C@@H]1CC[C@]2(COC(=O)c3nc(C)c(C)nc3C)CC[C@]3(C)[C@H](CC[C@@H]4[C@@]5(C)CC[C@H](OC(=O)[C@@H]6CCCN6C(=O)CCNC(C)=O)C(C)(C)[C@@H]5CC[C@]43C)[C@@H]12` the IC50 (HepG2) was > 20 µM, the IC50 (MDCK) was > 20 µM and the IC50 (HT-29) was > 20 µM. The IC50 (BGC-823) was > 20 µM and the IC50 (HeLa) was 10.4 µM.
Work on `C=C(C)[C@@H]1CC[C@]2(COC(=O)c3nc(C)c(C)nc3C)CC[C@]3(C)[C@H](CC[C@@H]4[C@@]5(C)CC[C@H](OC(=O)[C@@H]6CCC(=O)N6)C(C)(C)[C@@H]5CC[C@]43C)[C@@H]12` yielded an IC50 (HepG2) of 16.5 µM, an IC50 (MDCK) of 16.7 µM and an IC50 (HT-29) of 15.3 µM. The IC50 (BGC-823) was 8.62 µM and the IC50 (HeLa) was 19.4 µM.
In the case of `C=C(C)[C@@H]1CC[C@]2(COC(=O)c3nc(C)c(C)nc3C)CC[C@]3(C)[C@H](CC[C@@H]4[C@@]5(C)CC[C@H](OC(=O)[C@@H](N)CC(C)C)C(C)(C)[C@@H]5CC[C@]43C)[C@@H]12`, the IC50 (HepG2) is reported as > 20 µM, the IC50 (MDCK) is reported as > 20 µM and the IC50 (HT-29) is reported as > 20 µM. The IC50 (BGC-823) was > 20 µM and the IC50 (HeLa) was > 20 µM.
For `C=C(C)[C@@H]1CC[C@]2(COC(=O)c3nc(C)c(C)nc3C)CC[C@]3(C)[C@H](CC[C@@H]4[C@@]5(C)CC[C@H](OC(=O)[C@@H](N)Cc6ccccc6)C(C)(C)[C@@H]5CC[C@]43C)[C@@H]12`, the IC50 (HepG2) was > 20 µM, the IC50 (MDCK) was > 20 µM and the IC50 (HT-29) was > 20 µM. The IC50 (BGC-823) was > 20 µM and the IC50 (HeLa) was > 20 µM.
